Reference: article PMC9413440, “An Iterative Approach Guides Discovery of the FabI Inhibitor Fabimycin, a Late-Stage Antibiotic Candidate with In Vivo Efficacy against Drug-Resistant Gram-Negative Infections” (ACS Central Science, 2022)
≈ marks a conversion by molar mass, not a printed value.

Assays:
[1] = test system: A. baumannii AR-0313; experiment: MIC, broth microdilution (CLSI); type: cell-based; settings: Acinetobacter baumannii, AR0313; A. baumannii AR-0313 clinical isolate; † = dose-independent trailing growth
Protocol: (§1) II. Materials and Methods for Biological Experiments
(§2) S. aureus ATCC 29213 and E. coli MG1655 were obtained from the American Type Culture Collection (ATCC). E. coli BW25113 and E. coli JW5503 were obtained from the Keio Collection. AR-bank strains were obtained from the Centers for Disease Control and Prevention and FDA Antibiotic Resistance Isolate Bank.
(§3) Antimicrobial susceptibility tests
(§4) Susceptibility testing was performed in biological triplicate, unless noted otherwise, using the micro-dilution broth method as outlined by the Clinical and Laboratory Standards Institute. Bacteria were cultured with cation-adjusted Mueller Hinton broth (Sigma Aldrich, catalogue number: 90922). […]
(§5) Error bars represent the standard error of the mean of three biological replicates. All compounds evaluated in biological assays were ≥95% pure.

[2] = test system: K. pneumoniae AR-0113; experiment: MIC, broth microdilution (CLSI); type: cell-based; settings: Klebsiella pneumoniae, AR0113; K. pneumoniae AR-0113 clinical isolate
Protocol: as §1, §2, §3, §4, §5

[3] = target: A. baumannii FabI (Acinetobacter baumannii, UniProt D0CAD5); experiment: In vitro FabI enzymatic inhibition assay; type: biochemical; settings: AbFabI; Morrison's quadratic fit; 5 nM enzyme; read-out: Ki app
Protocol: (§6) supplemented with 100 µg/mL ampicillin at 37°C until OD600 reached 0.6-0.7. The cells were induced with 1mM IPTG and incubated for 20 hours at 18°C and spun down at 8000 rpm for 15 minutes. Cell pellet was resuspended in the lysis buffer (50 mM Tris-HCl pH 8.0, 500 mM Na Cl, 20 mM imidazole, 10% glycerol, 0.5 mM TCEP, protease inhibitor and Lysonase) and passed through microfluidizer followed by centrifugation and filtration to remove cell debris. The clarified lysate was supplemented with 20 mM imidazole and passed over a HisTrap column (Cytiva) pre-equilibrated with the wash buffer (50 mM Tris-HCl pH 8.0, 500 mM NaCl, 20 mM imidazole, 10% glycerol, 0.5 mM TCEP). The column was washed with the wash buffer and eluted over a 20-500 mM imidazole gradient. The appropriate fractions were pooled, and the histidine tag was removed by TEV cleavage. The protein mixture was passed over a HisTrap column to separate the cleaved protein from the uncleaved ones. The cleaved protein was pooled and passed over an S75 size exclusion column (GE LifeSciences) pre-equilibrated with 50 mM Tris-HCl pH 8.0, 500 mM NaCl, 0.5 mM TCEP and 10% glycerol. Fractions containing pure protein were pooled, concentrated at 10 mg/mL and stored at -80°C. […]
(§7) In vitro FabI enzymatic inhibition assay
(§8) Recombinant E. coli and A. baummani FabI enzymes were used in a continuous NADH absorbance assay (20 µL in 384w format). Compounds and the Crotonyl-CoA substrate (Sigma–Aldrich 28007) were dispensed into a plate (GeinerBio-One 781101). The reaction was initiated by the addition of a reaction master mix solution containing enzyme and NADH (Sigma–Aldrich N8129) suspended in reaction buffer (50 mM HEPES pH 7.4, 150 mM NaCl, 1 mM EDTA, 0.01 mg/mL BSA, 0.01% Tween). Final concentrations were 5 nM enzyme, 150 μM Crotonyl-CoA, 380 μM NADH, 0.05% DMSO in 1x reaction buffer. After shaking for 5 seconds the reaction was monitored at NADH absorbance (340nm, 25°C) using a Molecular Devices SpectraMax M5 microplate reader. The linear portion of the progress curve was fit using plate-reader software. Percentage activity was calculated relative to DMSO only and no-substrate controls in each plate and the data were fit to Morrison’s quadratic using Graphpad Prism 9.3 to obtain apparent inhibition constant (Ki app) values. […]
(§9) 480 Real-Time PCR System as a function of a temperature ramp (25-95°C; 0.1°/s) and the Tm was calculated using the […]

[4] = target: T1, E. coli FabI (Escherichia coli, UniProt P0AEK4); experiment: In vitro FabI enzymatic inhibition assay; type: biochemical; settings: for Ki: EcFabI, Morrison's quadratic fit, 5 nM enzyme, read-out: Ki app
T1 construct: His(6) with TEV site (cleaved yes); made in house; host or cells: E. coli BL21(DE3)
Protocol: as §6, §7, §8, §9

[5] = test system: A. baumannii AR-0273; experiment: MIC, broth microdilution (CLSI); type: cell-based; settings: Acinetobacter baumannii, AR0273; A. baumannii AR-0273 clinical isolate
Protocol: as §1, §2, §3, §4
(§10) NH3: m/z 391.2 → 171.0. Fabimycin: m/z 405.3 → 145.3. Power analysis was not used to determine the number of replicates. Error bars represent the standard error of the mean of three biological replicates. All compounds evaluated in biological assays were ≥95% pure.

[6] = test system: E. coli AR-0048; experiment: MIC, broth microdilution (CLSI); type: cell-based; settings: Escherichia coli, AR0048; E. coli AR-0048 clinical isolate
Protocol: as §1, §2, §3, §4, §10

[7] = test system: K. pneumoniae AR-0066; experiment: MIC, broth microdilution (CLSI); type: cell-based; settings: Klebsiella pneumoniae, AR0066; K. pneumoniae AR-0066 clinical isolate
Protocol: as §1, §2, §3, §4, §10

[8] = test system: E. coli MG1655; experiment: MIC, broth microdilution (CLSI); type: cell-based; settings: Escherichia coli
Protocol: as §1, §2, §3, §4, §10

[9] = test system: S. aureus ATCC 29213; experiment: MIC, broth microdilution (CLSI); type: cell-based; settings: Staphylococcus aureus, ATCC29213; S. aureus 29213
Protocol: as §1, §2, §3, §4, §10

[10] = test system: K. pneumoniae AR-0560; experiment: MIC, broth microdilution (CLSI); type: cell-based; settings: Klebsiella pneumoniae, AR0560; K. pneumoniae AR-0560 clinical isolate
Protocol: as §1, §2, §3, §4, §10

[11] = test system: K. pneumoniae BAA-2472; experiment: MIC, broth microdilution (CLSI); type: cell-based; settings: Klebsiella pneumoniae, BAA2472
Protocol: as §1, §2, §3, §4, §10

[12] = test system: A. baumannii AR-0299; experiment: MIC, broth microdilution (CLSI); type: cell-based; settings: Acinetobacter baumannii, AR0299; A. baumannii AR-0299 clinical isolate; † = dose-independent trailing growth
Protocol: as §1, §2, §3, §4, §10

[13] = test system: A. baumannii AR-0033; experiment: MIC, broth microdilution (CLSI); type: cell-based; settings: Acinetobacter baumannii, AR0033; A. baumannii AR-0033 clinical isolate; † = dose-independent trailing growth
Protocol: as §1, §2, §3, §4, §10

[14] = test system: E. coli AR-0085; experiment: MIC, broth microdilution (CLSI); type: cell-based; settings: Escherichia coli, AR0085; E. coli AR-0085 clinical isolate
Protocol: as §1, §2, §3, §4, §10

[15] = test system: E. coli ΔtolC (JW5503); experiment: MIC, broth microdilution (CLSI); type: cell-based, Escherichia coli
Protocol: as §1, §2, §3, §4, §10

T1 sequence (P0AEK4 whole entry): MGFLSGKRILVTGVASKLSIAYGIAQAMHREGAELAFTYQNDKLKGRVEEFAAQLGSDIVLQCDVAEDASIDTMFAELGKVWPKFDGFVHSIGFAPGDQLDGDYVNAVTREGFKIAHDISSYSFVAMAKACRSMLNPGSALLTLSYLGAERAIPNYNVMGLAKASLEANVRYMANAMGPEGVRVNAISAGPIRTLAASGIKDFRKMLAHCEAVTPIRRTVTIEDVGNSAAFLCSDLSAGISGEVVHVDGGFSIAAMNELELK
Sequence of A. baumannii FabI (D0CAD5 entry or part of it): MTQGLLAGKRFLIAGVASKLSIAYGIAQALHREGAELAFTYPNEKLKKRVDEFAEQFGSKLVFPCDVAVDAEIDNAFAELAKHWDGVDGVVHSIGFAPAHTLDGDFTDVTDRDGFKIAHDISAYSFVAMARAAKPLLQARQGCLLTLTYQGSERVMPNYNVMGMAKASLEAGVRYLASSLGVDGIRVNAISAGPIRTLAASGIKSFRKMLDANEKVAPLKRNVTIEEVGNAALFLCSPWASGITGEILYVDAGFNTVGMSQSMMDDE

Row | Compound | MIC [1] [µg/mL] | MIC [2] [µg/mL] | Ki [3] [nM] | Ki [4] [nM] | difference in potency between fabimycin and (R)-7 against purified E. coli FabI ([4]; fabimycin relative to (R)-7) [fold] | MIC [5] [µg/mL] | MIC [6] [µg/mL] | MIC [7] [µg/mL] | MIC [8] [µg/mL] | MIC [9] [ng/mL] | MIC [10] [µg/mL] | MIC [11] [µg/mL] | MIC [12] [µg/mL] | MIC [13] [µg/mL] | MIC [14] [µg/mL] | MIC ([15]; E. coli ΔtolC = JW5503, efflux-deficient) [µg/mL] | MIC ([15]; Escherichia coli) [µg/mL]
1 | Cc1c(CN(C)C(=O)/C=C/c2cnc3c(c2)CC[C@H](N)C(=O)N3)oc2ccccc12 [fabimycin] | 4 (≈ 9.89 µM) | 4 (≈ 9.89 µM) | 17 ± 3 | 8 ± 2 | 4.75 | 4 (≈ 9.89 µM) | 2 (≈ 4.94 µM) | 4 (≈ 9.89 µM) | 2 (≈ 4.94 µM) | 4 (≈ 0.00989 µM) | 4 (≈ 9.89 µM) | 4 (≈ 9.89 µM) | 2 (≈ 4.94 µM) | 4 (≈ 9.89 µM) | 1 (≈ 2.47 µM) | 0.016 (≈ 0.0396 µM) | 
2 | Cc1c(CN(C)C(=O)/C=C/c2cnc3c(c2)CC[C@@H](N)C(=O)N3)oc2ccccc12 [(R)-7] | > 128 | > 128 | 109 ± 14 | 38 ± 4 |  | > 128 | 128 (≈ 316 µM) | > 128 | 64 (≈ 158 µM) | 125 (≈ 0.309 µM) | > 128 | > 128 | > 128 | > 128 | 128 (≈ 316 µM) |  | 0.5 (≈ 1.24 µM)
3 | Cc1c(CN(C)C(=O)/C=C/c2cnc3c(c2)CCCC(=O)N3)oc2ccccc12 [compound 10] | 16 (≈ 41.1 µM) | 32 (≈ 82.2 µM) | 487 ± 101 | 131 ± 22 |  | 16 (≈ 41.1 µM) | 8 (≈ 20.5 µM) | 32 (≈ 82.2 µM) | 8 (≈ 20.5 µM) | 2 (≈ 0.00514 µM) | > 32 | 16 (≈ 41.1 µM) | 16 (≈ 41.1 µM) | 16 (≈ 41.1 µM) | 8 (≈ 20.5 µM) |  | 0.031 (≈ 0.0796 µM)
